Experiment [1] concerns the target T1, GHRH receptor (human pituitary membrane homogenates) (Homo sapiens, UniProt Q02643).
T1 sequence (Q02643 23-423): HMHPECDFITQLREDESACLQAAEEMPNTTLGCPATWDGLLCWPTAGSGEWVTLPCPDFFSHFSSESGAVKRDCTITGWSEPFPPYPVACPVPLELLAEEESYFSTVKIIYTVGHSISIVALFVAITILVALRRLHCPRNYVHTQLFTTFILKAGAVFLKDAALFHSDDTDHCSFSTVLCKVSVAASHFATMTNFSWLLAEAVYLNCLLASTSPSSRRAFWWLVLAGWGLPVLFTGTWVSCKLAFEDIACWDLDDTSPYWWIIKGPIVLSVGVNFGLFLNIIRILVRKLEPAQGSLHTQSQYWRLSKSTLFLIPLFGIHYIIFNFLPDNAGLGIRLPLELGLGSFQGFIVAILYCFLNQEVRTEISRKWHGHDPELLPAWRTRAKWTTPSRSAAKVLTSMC
The experiment in a line: GHRH receptor binding, ligand competition with 125I-labeled [His1,Nle27]hGHRH(1-32)NH2 (Table 6). The note with it: for Relative affinitiy (Binding potency) vs GHRH: GHRH(1-29) = 1.

The target in experiment [2] is T1, GHRH receptor (human pituitary membrane homogenates). The experiment in a line: GHRH receptor binding, ligand competition with 125I-labeled JV-1-42 (Table 7). Also noted: Normal human pituitaries were purchased from the National Hormone and Peptide Program; tissue National Hormone and Peptide Program (A. F. Parlow, Harbor-UCLA Medical Center, Torrance, Calif.); host or cells: normal human pituitary, membrane fraction / homogenate. The note with it: JI-38 = 1.

Another experiment relates to GH level. The experiment in a line: In vivo endocrine activity (GH release), subcutaneous administration. Particulars: rat; for GH releasing potency relative to JI-38 (=1): s.c. injection. The procedure: Subcutaneous Administration. Adult male rats were used and anesthetized with pentobarbital (6 mg/100 g, b.w.), by i.p. injection. […] Blood samples were taken from the jugular vein 5, 15 and/or 30 minutes after the injection. The blood samples were centrifuged, plasma was removed and the GH level was measured by ELISA. The results are summarized in terms of potency in Table 9.

The structures appear in SMILES notation. Non-standard residues stand in square brackets, D forms with d. Residues, ends and D or L forms follow the SMILES beside them. *: point of attachment. Phe(F5) = N[C@@H](Cc1c(F)c(F)c(F)c(F)c1F)C(=O)O; Desaminotyrosyl = O=C(CCc1ccc(O)cc1)*; NMeY = CN[C@@H](Cc1ccc(O)cc1)C(=O)O; hArg = N=C(N)NCCCC[C@H](N)C(=O)O; Agmatine = N=C(N)NCCCCN*; Nle = CCCC[C@H](N)C(=O)O; Orn = NCCC[C@H](N)C(=O)O; Abu = CC[C@H](N)C(=O)O; Ava = NCCCCC(=O)O; GABA = NCCCC(=O)O

Turning to `CCCC[C@H](NC(=O)[C@@H](NC(=O)[C@H](CC(=O)O)NC(=O)[C@H](CCC(N)=O)NC(=O)[C@H](CC(C)C)NC(=O)[C@H](CC(C)C)NC(=O)[C@H](CCCN)NC(=O)[C@H](CCCNC(=N)N)NC(=O)[C@H](C)NC(=O)[C@H](CO)NC(=O)[C@H](CC(C)C)NC(=O)[C@H](CCC(N)=O)NC(=O)[C@H](CC)NC(=O)[C@H](CC(C)C)NC(=O)[C@@H](NC(=O)[C@H](CCCN)NC(=O)[C@H](CCCNC(=N)N)NC(=O)[C@H](Cc1ccc(O)cc1)NC(=O)[C@H](CO)NC(=O)[C@@H](NC(=O)[C@@H](NC(=O)[C@H](Cc1ccccc1)NC(=O)[C@@H](NC(=O)[C@H](C)NC(=O)[C@H](CC(=O)O)NC(=O)[C@H](C)NC(=O)CCc1ccc(O)cc1)[C@@H](C)CC)[C@@H](C)O)[C@@H](C)O)C(C)C)[C@@H](C)CC)C(=O)N[C@@H](CC(=O)O)C(=O)NCCCCNC(=N)N` [JI-36, reference compound] (Desaminotyrosyl-ADAIFTTSYR[Orn]VL[Abu]QLSAR[Orn]LLQDI[Nle]D-Agmatine; N-terminus and C-terminus assumed), in experiment [1], the “Relative affinitiy (Binding potency) vs GHRH” value turned out to be 3.25.
With `CCCC[C@H](NC(=O)[C@@H](NC(=O)[C@H](CC(=O)O)NC(=O)[C@H](CCC(N)=O)NC(=O)[C@H](CC(C)C)NC(=O)[C@H](CC(C)C)NC(=O)[C@H](CCCN)NC(=O)[C@H](CCCNC(=N)N)NC(=O)[C@H](C)NC(=O)[C@H](CO)NC(=O)[C@H](CC(C)C)NC(=O)[C@H](CCC(N)=O)NC(=O)[C@H](CC)NC(=O)[C@H](CC(C)C)NC(=O)[C@@H](NC(=O)[C@H](CCCN)NC(=O)[C@H](CCCNC(=N)N)NC(=O)[C@H](Cc1ccc(O)cc1)NC(=O)[C@H](CO)NC(=O)[C@@H](NC(=O)[C@@H](NC(=O)[C@H](Cc1ccccc1)NC(=O)[C@@H](NC(=O)[C@H](C)NC(=O)[C@H](CC(=O)O)NC(=O)[C@@H](C)NC(=O)CCc1ccc(O)cc1)[C@@H](C)CC)[C@@H](C)O)[C@@H](C)O)C(C)C)[C@@H](C)CC)C(=O)N[C@@H](CC(=O)O)C(=O)N[C@@H](CCCNC(=N)N)C(=O)N[C@@H](CCCCNC(=N)N)C(N)=O` [Peptide P-23254, [Dat^1, D-Ala^2, Thr^8, Orn^12, Abu^15, Orn^21, Nle^27, Asp^28, Har^30]hGHRH(1-30)NH2] (Desaminotyrosyl-[dA]DAIFTTSYR[Orn]VL[Abu]QLSAR[Orn]LLQDI[Nle]DR[hArg]-NH2), the “Relative affinitiy (Binding potency) vs GHRH” value in experiment [1] was 84.5. Also, the “Relative affinitiy (Binding potency) vs JI-38” value (from here on “Relative affinitiy … vs JI-38”) in experiment [1] (JI-38 = 1) was 27.8.
Turning to `CCCC[C@H](NC(=O)[C@@H](NC(=O)[C@H](CC(=O)O)NC(=O)[C@H](CCC(N)=O)NC(=O)[C@H](CC(C)C)NC(=O)[C@H](CC(C)C)NC(=O)[C@H](CCCN)NC(=O)[C@H](CCCNC(=N)N)NC(=O)[C@H](C)NC(=O)[C@H](CO)NC(=O)[C@H](CC(C)C)NC(=O)[C@H](CCC(N)=O)NC(=O)[C@H](CC)NC(=O)[C@H](CC(C)C)NC(=O)[C@@H](NC(=O)[C@H](CCCN)NC(=O)[C@H](CCCNC(=N)N)NC(=O)[C@H](Cc1ccc(O)cc1)NC(=O)[C@H](CO)NC(=O)[C@H](CC(N)=O)NC(=O)[C@@H](NC(=O)[C@H](Cc1c(F)c(F)c(F)c(F)c1F)NC(=O)[C@@H](NC(=O)[C@H](C)NC(=O)[C@H](CC(=O)O)NC(=O)[C@@H](C)NC(=O)[C@H](Cc1ccc(O)cc1)NC)[C@@H](C)CC)[C@@H](C)O)C(C)C)[C@@H](C)CC)C(=O)N[C@@H](CC(=O)O)C(=O)N[C@@H](CCCNC(=N)N)C(=O)NC` [Peptide P-27404, [N—Me-Tyr^1, D-Ala^2, Fpa5^6, Orn^12, Abu^15, Orn^21, Nle^27, Asp^28]hGHRH(1-29)NH—CH3] (H-[NMeY][dA]DAI[Phe(F5)]TNSYR[Orn]VL[Abu]QLSAR[Orn]LLQDI[Nle]DR-NHMe), the “Relative affinitiy … vs JI-38” value in experiment [2] is reported as 5.00. For the same compound, the “Stimulation of growth hormone levels after s.c. administration (comparison in words)” value with GH level is reported as “stimulated greater growth hormone levels than hGHRH or JI-38”. For the same compound, the “GH releasing potency relative to JI-38 (=1)” value in the experiment with GH level (15 min after) is recorded as 2.07; with GH level (30 min after), 1.47.
With `CCCC[C@H](NC(=O)[C@@H](NC(=O)[C@H](CC(=O)O)NC(=O)[C@H](CCC(N)=O)NC(=O)[C@H](CC(C)C)NC(=O)[C@H](CC(C)C)NC(=O)[C@H](CCCN)NC(=O)[C@H](CCCNC(=N)N)NC(=O)[C@H](C)NC(=O)[C@H](CO)NC(=O)[C@H](CC(C)C)NC(=O)[C@H](CCC(N)=O)NC(=O)[C@H](CC)NC(=O)[C@H](CC(C)C)NC(=O)[C@@H](NC(=O)[C@H](CCCN)NC(=O)[C@H](CCCNC(=N)N)NC(=O)[C@H](Cc1ccc(O)cc1)NC(=O)[C@H](CO)NC(=O)[C@H](CCC(N)=O)NC(=O)[C@@H](NC(=O)[C@H](Cc1ccccc1)NC(=O)[C@@H](NC(=O)[C@H](C)NC(=O)[C@H](CC(=O)O)NC(=O)[C@@H](C)NC(=O)[C@H](Cc1ccc(O)cc1)NC)[C@@H](C)CC)[C@@H](C)O)C(C)C)[C@@H](C)CC)C(=O)N[C@@H](CC(=O)O)C(=O)N[C@@H](CCCNC(=N)N)C(=O)NCCCCC(N)=O` [Peptide P-22325, [N—Me-Tyr^1, Gln^8, Orn^12, Abu^15, Orn^21, Nle^27, Asp^28, Apa^30]hGHRH (1-30)NH2] (H-[NMeY][dA]DAIFTQSYR[Orn]VL[Abu]QLSAR[Orn]LLQDI[Nle]DR[Ava]-NH2), in experiment [2], the “Relative affinitiy … vs JI-38” value is 1.14. The figures for the “GH releasing potency relative to JI-38 (=1)” value in the experiment with GH level (5 min after), in the experiment on GH level (15 min after) and in the experiment on GH level (30 min after) were 0.33, 0.68 and 1.03, respectively.
Turning to `CCCC[C@H](NC(=O)[C@@H](NC(=O)[C@H](CC(=O)O)NC(=O)[C@H](CCC(N)=O)NC(=O)[C@H](CC(C)C)NC(=O)[C@H](CC(C)C)NC(=O)[C@H](CCCN)NC(=O)[C@H](CCCNC(=N)N)NC(=O)[C@H](C)NC(=O)[C@H](CO)NC(=O)[C@H](CC(C)C)NC(=O)[C@H](CCC(N)=O)NC(=O)[C@H](CC)NC(=O)[C@H](CC(C)C)NC(=O)[C@@H](NC(=O)[C@H](CCCN)NC(=O)[C@H](CCCNC(=N)N)NC(=O)[C@H](Cc1ccc(O)cc1)NC(=O)[C@H](CO)NC(=O)[C@H](CC(N)=O)NC(=O)[C@@H](NC(=O)[C@H](Cc1ccccc1)NC(=O)[C@@H](NC(=O)[C@H](C)NC(=O)[C@H](CC(=O)O)NC(=O)[C@@H](C)NC(=O)[C@H](Cc1ccc(O)cc1)NC)[C@@H](C)CC)[C@@H](C)O)C(C)C)[C@@H](C)CC)C(=O)N[C@@H](CO)C(=O)N[C@@H](CCCNC(=N)N)C(=O)NCCCC(N)=O` [Peptide P-25501, [N—Me-Tyr^1, D-Ala^2, Orn^12, Abu^15, Orn^21, Nle^27, Gab^30]hGHRH(1-30)NH2] (H-[NMeY][dA]DAIFTNSYR[Orn]VL[Abu]QLSAR[Orn]LLQDI[Nle]SR[GABA]-NH2), the “Relative affinitiy … vs JI-38” value in experiment [2] stood at 4.07. Besides, in the experiment on GH level, the “Stimulation of growth hormone levels after s.c. administration (comparison in words)” value is “stimulated greater growth hormone levels than hGHRH or JI-38”.
On the same counts, the results for `CCCC[C@H](NC(=O)[C@@H](NC(=O)[C@H](CC(=O)O)NC(=O)[C@H](CCC(N)=O)NC(=O)[C@H](CC(C)C)NC(=O)[C@H](CC(C)C)NC(=O)[C@H](CCCN)NC(=O)[C@H](CCCNC(=N)N)NC(=O)[C@H](C)NC(=O)[C@H](CO)NC(=O)[C@H](CC(C)C)NC(=O)[C@H](CCC(N)=O)NC(=O)[C@H](CC)NC(=O)[C@H](CC(C)C)NC(=O)[C@@H](NC(=O)[C@H](CCCN)NC(=O)[C@H](CCCNC(=N)N)NC(=O)[C@H](Cc1ccc(O)cc1)NC(=O)[C@H](CO)NC(=O)[C@H](CCC(N)=O)NC(=O)[C@@H](NC(=O)[C@H](Cc1ccccc1)NC(=O)[C@@H](NC(=O)[C@H](C)NC(=O)[C@H](CC(=O)O)NC(=O)[C@@H](C)NC(=O)[C@H](Cc1ccc(O)cc1)NC)[C@@H](C)CC)[C@@H](C)O)C(C)C)[C@@H](C)CC)C(=O)N[C@@H](CC(=O)O)C(=O)N[C@@H](CCCNC(=N)N)C(=O)NCCCCC(N)=O` [Peptide P-22326, [N—Me-Tyr^1, D-Ala^2, Gln^8, Orn^12, Abu^15, Orn^21, Nle^27, Asp^28, Apa^30]hGHRH(1-30)NH2] (H-[NMeY][dA]DAIFTQSYR[Orn]VL[Abu]QLSAR[Orn]LLQDI[Nle]DR[Ava]-NH2) are 6.12 and “stimulated greater growth hormone levels than hGHRH or JI-38”.

The record behind these values is patent US9393271B2, “GHRH agonists for islet cell transplantation and function and the treatment of diabetes” (UNIVERSITY OF MIAMI, priority 2012, dated 2016).
